In PubChem BioAssay AID1963973 (Molecular Pharmacology Branch, DTP, NCI, 2024):
pIC50: −log10 of the molar value.

System: 883617-216-R-J1-PDC tumor spheroids, viability
Assay: Anticancer human tumor 883617-216-R-J1-PDC patient-derived bladder carcinoma cell line growth inhibition [PI3K]
Settings: spheroids with HUVEC and MSC; for pIC50: curve of first compound; for viability, T/C: stronger effect = lower value
Method in brief: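 We assembled tumor spheroids that included a stromal compartment of HUVEC and MSCs, then exposed them to targeted agents alone and together with PI3K pathway inhibitors. Concentration series descended by half-log from clinically achievable Cmax levels. Viability served as the endpoint.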

[1] = second compound 0.00316 µM, first compound 0.0316 µM
[2] = second compound 0.00316 µM, first compound 0.1 µM
[3] = second compound 0.00316 µM, first compound 0.316 µM
[4] = second compound 0.00316 µM, first compound 1 µM
[5] = second compound 0.01 µM, first compound 0.0316 µM
[6] = second compound 0.01 µM, first compound 0.1 µM
[7] = second compound 0.01 µM, first compound 0.316 µM
[8] = second compound 0.01 µM, first compound 1 µM
[9] = second compound 0.0316 µM, first compound 0.0316 µM
[10] = second compound 0.0316 µM, first compound 0.1 µM
[11] = second compound 0.0316 µM, first compound 0.316 µM
[12] = second compound 0.0316 µM, first compound 1 µM
[13] = second compound 0.1 µM, first compound 0.0316 µM
[14] = second compound 0.1 µM, first compound 0.1 µM
[15] = second compound 0.1 µM, first compound 0.316 µM
[16] = second compound 0.1 µM, first compound 1 µM
[17] = second compound 0.316 µM, first compound 0.0316 µM
[18] = second compound 0.316 µM, first compound 0.1 µM
[19] = second compound 0.316 µM, first compound 0.316 µM
[20] = second compound 0.316 µM, first compound 1 µM
[21] = second compound 1 µM, first compound 0.0316 µM
[22] = second compound 1 µM, first compound 0.1 µM
[23] = second compound 1 µM, first compound 0.316 µM
[24] = second compound 1 µM, first compound 1 µM
[25] = second compound 0.00316 µM, first compound 3.16 µM
[26] = second compound 0.00316 µM, first compound 10 µM
[27] = second compound 0.01 µM, first compound 3.16 µM
[28] = second compound 0.01 µM, first compound 10 µM
[29] = second compound 0.0316 µM, first compound 3.16 µM
[30] = second compound 0.0316 µM, first compound 10 µM
[31] = second compound 0.1 µM, first compound 3.16 µM
[32] = second compound 0.1 µM, first compound 10 µM
[33] = second compound 0.316 µM, first compound 3.16 µM
[34] = second compound 0.316 µM, first compound 10 µM
[35] = second compound 1 µM, first compound 3.16 µM
[36] = second compound 1 µM, first compound 10 µM
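Note: spheroids exposed to agents for 7 days before the viability read.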

Work on `CCN1CCN(Cc2ccc(Nc3ncc(F)c(-c4cc(F)c5nc(C)n(C(C)C)c5c4)n3)nc2)CC1` + COc1c(OCCCN2CCOCC2)ccc2c3n(c(=NC(=O)c4cnc(N)nc4)nc12)CCN3 yielded a pIC50 (second compound 0.00316 µM) of 6.63, a pIC50 (second compound 0.01 µM) of 7.45 and a pIC50 (second compound 0.0316 µM) of over 8.50. The pIC50 (second compound 0.1 µM) was over 8.50, the pIC50 (second compound 0.316 µM) was over 8.50 and the pIC50 (second compound 1 µM) was over 8.50. For the same compound, the viability, T/C (second compound 0.00316 µM, first compound 0.00316 µM) was 91.3%, the viability, T/C (second compound 0.00316 µM, first compound 0.01 µM) was 83.5% and the viability, T/C [1] was 70.2%. The viability, T/C [2] was 57.2%, the viability, T/C [3] was 47.6% and the viability, T/C [4] was 42.3%. It also gave a viability, T/C (second compound 0.01 µM, first compound 0.00316 µM) of 65.5%, a viability, T/C (second compound 0.01 µM, first compound 0.01 µM) of 62.2% and a viability, T/C [5] of 51.4%. The viability, T/C [6] was 40.4%, the viability, T/C [7] was 40.7% and the viability, T/C [8] was 38.8%. For the same compound, the viability, T/C (second compound 0.0316 µM, first compound 0.00316 µM) was 36.3%, the viability, T/C (second compound 0.0316 µM, first compound 0.01 µM) was 31.1% and the viability, T/C [9] was 24.8%. The viability, T/C [10] was 25.9%, the viability, T/C [11] was 24% and the viability, T/C [12] was 21.5%. It also gave a viability, T/C (second compound 0.1 µM, first compound 0.00316 µM) of 14.6%, a viability, T/C (second compound 0.1 µM, first compound 0.01 µM) of 12.9% and a viability, T/C [13] of 18.3%. It also gave a viability, T/C [14] of 11.5%, a viability, T/C [15] of 12.6% and a viability, T/C [16] of 11.8%. It also gave a viability, T/C (second compound 0.316 µM, first compound 0.00316 µM) of 4.77%, a viability, T/C (second compound 0.316 µM, first compound 0.01 µM) of 4.9% and a viability, T/C [17] of 4.63%. For the same compound, the viability, T/C [18] was 4.67%, the viability, T/C [19] was 4.91% and the viability, T/C [20] was 6.41%. The viability, T/C (second compound 1 µM, first compound 0.00316 µM) was 2.94%, the viability, T/C (second compound 1 µM, first compound 0.01 µM) was 3% and the viability, T/C [21] was 3.07%. It also gave a viability, T/C [22] of 3.49%, a viability, T/C [23] of 4.44% and a viability, T/C [24] of 6.38%.
Work on `Cn1ncc(Cl)c1-c1cc(C(=O)NC(CN)Cc2cccc(F)c2)sc1Cl` (stereo unspecified) + COc1c(OCCCN2CCOCC2)ccc2c3n(c(=NC(=O)c4cnc(N)nc4)nc12)CCN3 yielded a pIC50 (second compound 0.00316 µM) of 6.33, a pIC50 (second compound 0.01 µM) of 6.62 and a pIC50 (second compound 0.0316 µM) of over 7.50. For the same compound, the pIC50 (second compound 0.1 µM) was over 7.50, the pIC50 (second compound 0.316 µM) was over 7.50 and the pIC50 (second compound 1 µM) was over 7.50. The viability, T/C [1] was 83.1%, the viability, T/C [2] was 85.4% and the viability, T/C [3] was 59%. For the same compound, the viability, T/C [4] was 29.6%, the viability, T/C [25] was 13.9% and the viability, T/C [26] was 5.61%. It also gave a viability, T/C [5] of 66%, a viability, T/C [6] of 61.6% and a viability, T/C [7] of 45.4%. For the same compound, the viability, T/C [8] was 28.1%, the viability, T/C [27] was 10% and the viability, T/C [28] was 4.83%. The viability, T/C [9] was 33.8%, the viability, T/C [10] was 34.7% and the viability, T/C [11] was 33.2%. It also gave a viability, T/C [12] of 15.1%, a viability, T/C [29] of 8.09% and a viability, T/C [30] of 3.75%. For the same compound, the viability, T/C [13] was 17.8%, the viability, T/C [14] was 12.7% and the viability, T/C [15] was 10.8%. The viability, T/C [16] was 8.94%, the viability, T/C [31] was 5.15% and the viability, T/C [32] was 2.08%. For the same compound, the viability, T/C [17] was 6.38%, the viability, T/C [18] was 4.23% and the viability, T/C [19] was 5.38%. For the same compound, the viability, T/C [20] was 5.78%, the viability, T/C [33] was 2.33% and the viability, T/C [34] was 1.23%. It also gave a viability, T/C [21] of 3.15%, a viability, T/C [22] of 3.32% and a viability, T/C [23] of 2.66%. For the same compound, the viability, T/C [24] was 2.93%, the viability, T/C [35] was 2.39% and the viability, T/C [36] was 0.58%.
Compound `Cn1nccc1Nc1nccc(-c2ccn(C(CO)c3ccc(Cl)c(F)c3)c(=O)c2)n1` (stereo unspecified) + COc1c(OCCCN2CCOCC2)ccc2c3n(c(=NC(=O)c4cnc(N)nc4)nc12)CCN3 has a pIC50 (second compound 0.00316 µM) of 5.48, a pIC50 (second compound 0.01 µM) of 6.47 and a pIC50 (second compound 0.0316 µM) of over 7.50. It also gave a pIC50 (second compound 0.1 µM) of over 7.50, a pIC50 (second compound 0.316 µM) of over 7.50 and a pIC50 (second compound 1 µM) of over 7.50. It also gave a viability, T/C [1] of 83.4%, a viability, T/C [2] of 76.7% and a viability, T/C [3] of 64.6%. For the same compound, the viability, T/C [4] was 65%, the viability, T/C [25] was 47.9% and the viability, T/C [26] was 40.4%. The viability, T/C [5] was 59.4%, the viability, T/C [6] was 59.5% and the viability, T/C [7] was 51%. It also gave a viability, T/C [8] of 40.4%, a viability, T/C [27] of 39.9% and a viability, T/C [28] of 33.8%. For the same compound, the viability, T/C [9] was 39.3%, the viability, T/C [10] was 33.5% and the viability, T/C [11] was 26.7%. For the same compound, the viability, T/C [12] was 27.8%, the viability, T/C [29] was 21.5% and the viability, T/C [30] was 14.3%. It also gave a viability, T/C [13] of 12.8%, a viability, T/C [14] of 12.8% and a viability, T/C [15] of 10.5%. It also gave a viability, T/C [16] of 7.47%, a viability, T/C [31] of 6.96% and a viability, T/C [32] of 6.94%. The viability, T/C [17] was 5.61%, the viability, T/C [18] was 3.51% and the viability, T/C [19] was 4.13%. It also gave a viability, T/C [20] of 1.85%, a viability, T/C [33] of 1.07% and a viability, T/C [34] of 1.21%. For the same compound, the viability, T/C [21] was 2.27%, the viability, T/C [22] was 1.46% and the viability, T/C [23] was 0.6%. The viability, T/C [24] was 0.25%, the viability, T/C [35] was 0.12% and the viability, T/C [36] was 0.12%.
